Measured values reported in PMC8197855, “Peptide/β-Peptoid Hybrids with Activity against Vancomycin-Resistant Enterococci: Influence of Hydrophobicity and Structural Features on Antibacterial and Hemolytic Properties” (International Journal of Molecular Sciences, 2021).
≈ marks a conversion by molar mass, not a printed value.

Tests used:
[1] = tested on: E. faecium 1798; test: microbe, parasite or virus in culture; format: cell-based, Enterococcus faecium
Method: (§1) Overnight cultures of the enterococcal isolates were diluted in physiological saline (0.9% NaCl) to reach a turbidity of 0.5 McFarland units (Sensititre® nephelometer and the Sensititre® McFarland Standard). Bacterial suspensions were adjusted to 5 × 10^5 CFU/mL in MHB II or BHI broth containing two-fold dilutions of peptidomimetics or conventional antibiotics in a final volume of 100 µL. The plates were incubated for 24 h at 37 °C without shaking. […] All experiments were performed in three biological replicates.

[2] = tested on: E. faecium 2961; test: microbe, parasite or virus in culture; format: cell-based, Enterococcus faecium
Method: as §1

[3] = tested on: E. faecium 3978; test: microbe, parasite or virus in culture; format: cell-based, Enterococcus faecium
Method: as §1

[4] = tested on: E. faecium D344R; test: microbe, parasite or virus in culture; format: cell-based, Enterococcus faecium; conditions: 24 h
Method: as §1

[5] = tested on: E. faecium ATCC 19434; test: microbe, parasite or virus in culture; format: cell-based, Enterococcus faecium
Method: as §1, with “replicates. […]” for “replicates.”

[6] = tested on: E. faecalis 38262; test: microbe, parasite or virus in culture; format: cell-based, Enterococcus faecalis
Method: as §1

[7] = tested on: E. faecalis 39002; test: microbe, parasite or virus in culture; format: cell-based, Enterococcus faecalis
Method: as §1

[8] = Hydrophobicity by analytical RP-HPLC (% MeCN at peak elution); format: physicochemical
Method: Water was filtered by using an Evoqua LaboStar PRO TWF Ultra Pure Water System prior to use in high-performance liquid chromatography (HPLC). The retention time for each peptidomimetic was determined by analytical HPLC using a Phenomenex Luna C18(2) HST column (100 mm × 3 mm; particle size: 2.5 μm; pore size: 100 Å) on a Shimadzu Prominence and Shimadzu Nexera system using an aqueous MeCN gradient with 0.1% trifluoroacetic acid (TFA) added (eluent A: 5:95 MeCN–H2O + 0.1% TFA; eluent B: 95:5 MeCN–H2O + 0.1% TFA); a flow rate of 0.5 mL/min was used. For the elution of peptidomimetics, a linear gradient of 0% to 60% B over 10 min was used with UV detection at λ = 220 nm. The percentage MeCN at peak elution was calculated from the retention time (tR) by using the following formula:%MeCN = [0.95 × 0.6 × tR/10 + 0.05 × (1 − 0.6 × tR/10)] × 100%

[9] = Hemolytic activity; format: cell-based, human; conditions: human, human red blood cells (washed, 1% suspension), 37 °C, 1% red blood cell suspension
Method: (§2) A suspension of hRBCs (Single-donor human red blood cells—washed; catalogue No. IPLA-W3 from Innovative researchTM) was washed three times with PBS buffer and centrifuged for 5 min at 2500 rpm. A two-fold serial dilution of compounds in PBS buffer was prepared. Plates (conical-bottomed 96-well plates) with 3 replicate wells per dilution, containing 1% red blood cell suspension, were prepared and dosed with the test compound to achieve a final concentration of 400 μg/mL in a total volume of 100 μL. The plates were incubated (37 °C) for 60 min with mild agitation, and then the cells were pelleted by centrifugation at 1500 rpm for 5 min. Then, the supernatants (50 μL) were transferred to a fresh 96-well plate, and then the concentration of hemoglobin was detected by measuring the OD at 405 nm. The OD of cells incubated with 1% SDS achieved 100% hemolysis, while the OD of cells incubated with PBS buffer achieved 0% hemolysis. The concentration tested was 400 μg/mL (only average values are stated in Table 3). The percent hemolysis was calculated by using the formula:Hemolysis(%) = 100 × [(Asample − Aneg.control)/(Apos. control − Aneg.control)]

[10] = tested on: human red blood cells; test: Hemolytic activity; format: cell-based; conditions: 60 min, 37 °C, 1% red blood cell suspension
Method: as §2

[11] = tested on: HepG2 cell line ATCC HB-8065; test: Effect on HepG2 cell viability (MTT assay); format: cell-based, human; conditions: 48 h
Method: The effect of peptidomimetics on mammalian cell viability was determined on the HepG2 cell line ATCC HB-8065. In brief, HepG2 cells were seeded into flat-bottom 96-well plates at a concentration of 5000 cells per well. The cells were incubated for 24 h in a humidified incubator (5% CO2, 37 °C). Subsequently, the medium was removed, and the cells were incubated for 48 h in a humidified incubator (5% CO2, 37 °C) with peptidomimetics in serial dilutions. An MTT assay was then performed; in brief, after incubation with the test compounds, the culture medium was removed and fresh medium with 0.2 mg/mL MTT was then added into each well. After incubation (3 h, 37 °C, 5% CO2), the medium with MTT was removed, and 200 μL dimethyl sulfoxide was added at once to each sample. The absorbance of MTT was measured using the spectrophotometer TECAN Infinite M1000 at 540 nm. The relative viability was calculated by using the formula:ODtreated cells × 100/ODcontrol cells
The IC50 values were calculated using the program Graph Pad Prism 5.0. For all compounds, the test range was 10–1280 μg/mL.

[12] = tested on: E. faecium isolates; format: cell-based, Enterococcus faecium; conditions: 24 h
Method: as §1

[13] = tested on: E. faecalis ATCC 29212; test: microbe, parasite or virus in culture; format: cell-based, Enterococcus faecalis; conditions: Enterococcus faecalis, ATCC29212, 24 h, read-out: Minimum inhibitory concentration
Method: as §1, with “replicates. […]” for “replicates.”

[14] = tested on: E. faecium 1798; test: Broth checkerboard assay with conventional antibiotics; format: cell-based, Enterococcus faecium; conditions: antibiotic alone (-); BHI broth
Method: (§3) The strain culture preparation and final volume were the same as in the MIC assay. […] The plates were incubated for 24 h at 37 °C without shaking. […] All experiments were performed in two biological replicates.
(§4) To evaluate the effect of the combinations, the fractional inhibitory concentration index (FICI) was calculated for each combination according to:ΣFIC = FICA + FICB = (CA/MICA) + (CB/MICB)
(§5) The drug interaction was scored as follows: synergy—FICI ≤ 0.5; no interaction—FICI > 0.5–4; antagonism—FICI > 4 [40].

[15] = tested on: E. faecium 2961; test: as above; format: cell-based, Enterococcus faecium; conditions: antibiotic alone (-); BHI broth
Method: as §3, §4, §5

[16] = tested on: E. faecium ATCC 19434; test: as above; format: cell-based, Enterococcus faecium; conditions: antibiotic alone (-); BHI broth
Method: as §3, §4, §5

[17] = tested on: E. faecalis ATCC 29212; test: as above; format: cell-based, Enterococcus faecalis; conditions: antibiotic alone (-); BHI broth
Method: as §3, §4, §5

Work on CC(=O)N[C@@H](CCCCNC(=N)N)C(=O)N(CCC(=O)N[C@@H](CCCCNC(=N)N)C(=O)N(CCC(=O)N[C@@H](CCCCNC(=N)N)C(=O)N(CCC(=O)N[C@@H](CCCCNC(=N)N)C(=O)N(CCC(=O)N[C@@H](CCCCNC(=N)N)C(=O)N(CCC(=O)N[C@@H](CCCCNC(=N)N)C(=O)N(CCC(=O)N[C@@H](CCCCNC(=N)N)C(=O)N(CCC(=O)N[C@@H](CCCCNC(=N)N)C(=O)N(CCC(N)=O)Cc1ccccc1)Cc1ccccc1)Cc1ccccc1)Cc1ccccc1)Cc1ccccc1)Cc1ccccc1)Cc1ccccc1)Cc1ccccc1 [Compound 1, Ac-[hArg-βNPhe]8-NH2] yielded a Minimum inhibitory concentration ([1]; 1798, 24 h) of 2 µg/mL (≈ 0.738 µM), a Minimum inhibitory concentration ([2]; 2961, 24 h) of 2 µg/mL (≈ 0.738 µM) and a Minimum inhibitory concentration ([3]; 3978, 24 h) of 4 µg/mL (≈ 1.48 µM). For the same molecule, the Minimum inhibitory concentration ([4]; E. faecium D344R, human clinical isolate) was 4 µg/mL (≈ 1.48 µM), the Minimum inhibitory concentration ([5]; ATCC 19434, 24 h) was 8 µg/mL (≈ 2.95 µM) and the Minimum inhibitory concentration ([6]; 38262, 24 h) was 16 µg/mL (≈ 5.9 µM). The Minimum inhibitory concentration ([7]; 39002, 24 h) was 32 µg/mL (≈ 11.8 µM), the “Hydrophobicity, Luna C18(2) HST (0–60% B; 10 min), retention converted into % MeCN” value [8] was 41.8 % MeCN and the hemolysis at 60 min, 400 µg/mL [9] was roughly 6%. The “Hemolysis (at 400 µg/mL)” value [10] was 6.1%, the “HepG2 IC50” value [11] was 9 µg/mL and the “MIC (range or typical value) against E. faecium” value [12] was 2 to 8 µg/mL.
Work on CN[C@H](CC(C)C)C(=O)N[C@H]1C(=O)N[C@@H](CC(N)=O)C(=O)N[C@H]2C(=O)N[C@H]3C(=O)N[C@H](C(=O)N[C@H](C(=O)O)c4cc(O)cc(O)c4-c4cc3ccc4O)[C@H](O)c3ccc(c(Cl)c3)Oc3cc2cc(c3O[C@@H]2O[C@H](CO)[C@@H](O)[C@H](O)[C@H]2O[C@H]2C[C@](C)(N)[C@H](O)[C@H](C)O2)Oc2ccc(cc2Cl)[C@H]1O [Vancomycin, vancomycin] yielded an MIC ([1]; Enterococcus faecium, 1798, 24 h, read-out: Minimum inhibitory concentration) greater than 256 µg/mL, an MIC ([2]; Enterococcus faecium, 2961, 24 h, read-out: Minimum inhibitory concentration) greater than 256 µg/mL and an MIC ([3]; Enterococcus faecium, 3978, 24 h, read-out: Minimum inhibitory concentration) of 16 µg/mL (≈ 11 µM). It also gave an MIC ([4]; Enterococcus faecium, D344R, read-out: Minimum inhibitory concentration) of 2 µg/mL (≈ 1.38 µM), an MIC ([5]; Enterococcus faecium, ATCC19434, 24 h, read-out: Minimum inhibitory concentration) of 1 to 2 µg/mL (≈ 0.69 to 1.38 µM) and an MIC [13] of 2 to 4 µg/mL (≈ 1.38 to 2.76 µM). For the same molecule, the MIC ([6]; Enterococcus faecalis, 38262, 24 h, read-out: Minimum inhibitory concentration) was 1 µg/mL (≈ 0.69 µM), the MIC ([7]; Enterococcus faecalis, 39002, 24 h, read-out: Minimum inhibitory concentration) was 1 µg/mL (≈ 0.69 µM) and the MIC of antibiotic [14] was greater than 256 µg/mL. It also gave an MIC of antibiotic [15] greater than 256 µg/mL, an MIC of antibiotic [16] of 1 to 2 µg/mL and an MIC of antibiotic [17] of 2 to 4 µg/mL.
